Assays:
[1] = system: mice; assay: Anti-pentylene tetrazole convulsion activity; type: in vivo, mouse (ddY-type male mice); details: Mus musculus, PO, pentylene tetrazole 125 mg/kg s.c. 1 hour later, read-out: ED50 anti-convulsion, pentetrazol shock
Procedure: (§1) In the following tests, the pharmacological actions of the compounds were tested by using six mice (ddY-type male mice) for each dosage level, and ED50 values were determined. In the determination of ED50 values, the dosages of the test compounds were increased or decreased by a common ratio of 3 as required, and 3 or 4 dosage levels were used. The calculation of the ED50 values was made on the basis of the Litchfield-Wilcoxon method [J. Pharmacol. Exp. Therap., 96, 99 (1949)].
(1) Anti-pentylene tetrazole convulsion activity
Each of test compounds suspended in a 5% gum arabic solution was orally administered to mice. One hour later, pentylene tetrazole in an amount of 125 mg/kg was administered subcutaneously. Then, over the course of 30 minutes, the presence or absence of convulsion in the subjects was examined.

[2] = system: mice; assay: Potentiation of thiopental hypnosis (sedation); type: in vivo, mouse (ddY-type male mice); details: Mus musculus, 1 h, PO, sodium thiopental 50 mg/kg i.p., sleeping time prolonged to two times
Procedure: as §1
(4) Potentiation of thiopental hypnosis
The subjects were orally administered with the test compound. One hour later, sodium thiopental in an amount of 50 mg/kg was administered intraperitoneally. The dosage which prolonged the sleeping time (the period of loss of righting reflex) to two times that in the case of a group administered only with sodium thiopental was determined.

[3] = system: mice; assay: Muscle relaxant activity (inclined screen); type: in vivo, mouse (ddY-type male mice); details: Mus musculus, PO, plate inclined at 70°, 30 seconds, read-out: ED50 muscle relaxation, inclined screen
Procedure: as §1
(5) Muscle relaxant activity
Mice were placed on a wooden plate having a smooth surface and being inclined at an angle of 70°, and those which could stay on the initially placed positions for more than 30 seconds were selected. The selected subjects were orally administered with the test compound, and placed on the inclined plate. Examination was made as to whether the mice slipped down within 30 seconds.

[4] = system: mice; assay: Motor incoordinating activity (rotating rod); type: in vivo, mouse (ddY-type male mice); details: Mus musculus, 0.05 h, PO, 5.5 rpm, within 3 minutes, read-out: ED50 motor incoordination, rotating rod
Procedure: as §1
(6) Motor incoordinating activity
Mice which could stay for more than 3 minutes on a rotating rod having a diameter of 3.0 cm and rotating at a speed of 5.5 rpm. The subjects were orally administered with the test compound, and then at intervals of 30 minutes, they were placed on the rotating rod. Examination was made as to whether they slipped down within 3 minutes.

[5] = system: mice; assay: Taming activity (fighting mouse); type: in vivo, mouse (ddY-type male mice); details: PO, electroshock 100 V, 3 mA
Procedure: as §1
This was determined by a partially modified version of the method of Tedeschi et al. [J. Pharmacol. Exp. Therap., 125, 28 (1959)]. Two mice different in body weight by less than 1 gram were placed in a fighting device, and electroshock (100 V, 3 mA, 0.45 Hz, 0.5 sec) was applied for 3 minutes. […] Then, at intervals of 30 minutes, electroshock was applied under the above conditions, and the presence or absence of fighting reaction in the subjects was examined.

[6] = system: mice; assay: Anti-electroshock convulsant activity (maximal electroshock); type: in vivo, mouse (ddY-type male mice); details: Mus musculus, PO, electroshock 30 mA, 200 Hz 1 hour later, read-out: ED50 anti-convulsion, maximal electroshock
Procedure: as §1
(3) Anti-electroshock convulsant activity
The subjects were orally administered with the test compound. One hour later, electroshock (30 mA, 200 Hz, 1 msec) was applied for 0.2 second through both ears, and the presence or absence of tonic extensor convulsion was examined.

[7] = Pharmacological / central nervous system depressant actions, general statement; type: in vivo; details: anti-anxietic, sedative, hypnotic, muscle relaxant, anti-convulsant actions
[8] = system: mice; assay: Acute toxicity; type: in vivo, mouse (male ddY-type mice); details: one week observation
Procedure: A test compound was suspended in a 5% solution of gum arabic, and the suspension was administered to a group of 2 to 4 male ddY-type mice in a dose of 1000, 2000, and 3000 mg/kg, respectively. The conditions of the subjects were observed over a period of one week after administration, and the acute toxicity was examined.

SMILES | ED50 [1] [mg/kg] | ED50 [2] [mg/kg] | ED50 [3] [mg/kg] | ED50 [4] [mg/kg] | ED50 [5] [mg/kg] | ED50 [6] [mg/kg] | Pharmacological actions in words [7] | Acute toxicity: death of the subjects ([8]; 3000 mg/kg) | Acute toxicity: death of the subjects ([8]; 1000 mg/kg)
Clc1ccc2c(c1)C(c1ccccc1Cl)=NCc1cccn1-2 [Comparison (R5=Cl, R6=Cl, R7=H), reference compound] | > 100 | 18 | > 100 | > 100 | > 100 | > 100 |  |  | 
Clc1ccc2c(c1)C(c1ccccc1)=NCc1cccn1-2 [Comparison (R5=Cl, R6=H, R7=H), 8-Chloro-6-phenyl-4H-pyrrolo[1,2-a][1,4]benzodiazepine, reference compound] | 78 | 44 | > 100 | > 100 | > 100 | > 100 | does not substantially show those pharmacological actions which are common to many other known benzodiazepines |  | 
c1ccc(C2=NCc3cccn3-c3ccccc32)cc1 [Comparison (R5=H, R6=H, R7=H), reference compound] | > 100 | 55 | > 100 | > 100 | 78 | > 100 |  |  | 
Cc1ccc2n1-c1ccc(Cl)cc1C(c1ccccc1Cl)=NC2 [Compound 1, 8-chloro-6-(2-chlorophenyl)-1-methyl-4H-pyrrolo[1,2-a][1,4]benzodiazepine] | 20 | 2.8 | > 100 | 100 | 11 | > 100 |  |  | 
Cc1ccc2n1-c1ccc(Cl)cc1C(c1ccccc1F)=NC2 [Compound 2, 8-chloro-6-(2-fluorophenyl)-1-methyl-4H-pyrrolo[1,2-a][1,4]benzodiazepine] | 36 | 6.9 | > 100 | > 100 | 55 | > 100 |  |  | 
Cc1cc2n(c1C)-c1ccc(Cl)cc1C(c1ccccc1F)=NC2 [Compound 3, 8-chloro-1,2-dimethyl-6-(2-fluorophenyl)-4H-pyrrolo[1,2-a][1,4]benzodiazepine] | 10 | 10 | > 100 | > 100 | 17 | > 100 |  |  | 
Cc1cc2n(c1C)-c1ccc(Cl)cc1C(c1ccccc1Cl)=NC2 [Compound 4, 8-chloro-6-(2-chlorophenyl)-1,2-dimethyl-4H-pyrrolo[1,2-a][1,4]benzodiazepine] | 6.5 | 2.6 | > 100 | 40 | 4.8 | > 100 |  |  | 
Cc1cc2n(c1C)-c1ccc(Cl)cc1C(c1ccccc1)=NC2 [Compound 5, 8-chloro-1,2-dimethyl-6-phenyl-4H-pyrrolo[1,2-a][1,4]benzodiazepine] | 13.5 | 21 | > 100 | > 100 | ≥ 30 | > 100 |  |  | 
CCc1cc2n(c1C)-c1ccc(Cl)cc1C(c1ccccc1Cl)=NC2 [Compound 6, 8-chloro-6-(2-chlorophenyl)-2-ethyl-1-methyl-4H-pyrrolo[1,2-a][1,4]benzodiazepine] | 3.4 | 0.8 | 14 | 23.5 | 5.5 | > 30 |  |  | 
CCc1cc2n(c1C)-c1ccc(Cl)cc1C(c1ccccc1F)=NC2 [Compound 7, 8-chloro-2-ethyl-6-(2-fluorophenyl)-1-methyl-4H-pyrrolo[1,2-a][1,4]benzodiazepine] | 5.5 | 2.2 | 30 | > 100 | 5.5 | > 30 |  |  | 
CCc1cc2n(c1C)-c1ccc(Cl)cc1C(c1c(F)cccc1F)=NC2 [Compound 8, 8-chloro-2-ethyl-6-(2,6-difluorophenyl)-1-methyl-4H-pyrrolo[1,2-a][1,4]benzodiazepine] | 11.2 | 1.9 | 69 | > 100 | 12.5 | > 30 |  |  | 
Cc1cc(C)n2c1CN=C(c1ccccc1Cl)c1cc(Cl)ccc1-2 [Compound 9, 8-chloro-6-(2-chlorophenyl)-1,3-dimethyl-4H-pyrrolo[1,2-a][1,4]benzodiazepine] | 1.8 | 0.34 | 8.2 | 15.5 | 1.6 | 100 |  | did not cause any death | 
Cc1cc(C)n2c1CN=C(c1ccccc1F)c1cc(Cl)ccc1-2 [Compound 10, 8-chloro-1,3-dimethyl-6-(2-fluorophenyl)-4H-pyrrolo[1,2-a][1,4]benzodiazepine] | 5.5 | 2.4 | 21.5 | > 30 | 8.8 | > 100 |  |  | 
Cc1cc(C)n2c1CN=C(c1c(F)cccc1F)c1cc(Cl)ccc1-2 [Compound 11, 8-chloro-6-(2,6-difluorophenyl)-1,3-dimethyl-4H-pyrrolo[1,2-a][1,4]benzodiazepine] | 2 | 0.7 | 10 | 15.5 | 1.6 | 88 |  | did not cause any death | 
CN1C(=O)CN=C(c2ccccc2)c2cc(Cl)ccc21 [Diazepam, reference compound] | 0.7 | 0.3 | 1 |  | 1.6 | 8.8 |  |  | caused half of the mice to die

Reference: US4169150A, “Benzodiazepine derivatives and pharmaceutical compositions containing said derivatives” (Teijin Limited, priority 1975, dated 1979)
